Earlier results, collected in PMC4753123 (Archives of biochemistry and biophysics, 2015).

Target: T1, Mtm1p (Saccharomyces cerevisiae, UniProt P53320)
T1 sequence (P53320 1-366): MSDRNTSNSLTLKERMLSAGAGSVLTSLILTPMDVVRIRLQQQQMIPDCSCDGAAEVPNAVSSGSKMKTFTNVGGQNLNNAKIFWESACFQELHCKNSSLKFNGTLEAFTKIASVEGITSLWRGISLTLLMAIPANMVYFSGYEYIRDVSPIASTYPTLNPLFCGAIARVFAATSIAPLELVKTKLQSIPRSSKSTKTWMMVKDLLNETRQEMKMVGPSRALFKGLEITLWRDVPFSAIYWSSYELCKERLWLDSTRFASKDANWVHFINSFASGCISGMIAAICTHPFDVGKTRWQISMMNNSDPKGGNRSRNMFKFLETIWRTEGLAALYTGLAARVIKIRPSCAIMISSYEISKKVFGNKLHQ
Assay: fluorescence titration
Assay type: binding
Details: purified recombinant protein

Kd: 0.6 µM
Structure (SMILES): Cc1ncc(COP(=O)(O)O)c(C=O)c1O [PLP]
